Holding throughout (format): physicochemical
Series [1] can be described thus: Absorption properties of the terbium and europium complexes in TRIS/HCl buffer. Particulars: 0.01M TRIS/HCl buffer at pH = 7.0. An excerpt: By way of example, all of the absorption and emission properties of the terbium and europium complexes synthesized from the ligands (I-1) to (I-4) in accordance with the invention are summarized in Table 1 below: […]
Series [2] is described as follows: Emission properties: luminescence lifetime and quantum luminescence yield in water and D2O. Particulars: for Emission τ (luminescence lifetime): error estimated ±5%; for Emission φ (quantum luminescence yield): error estimated ±15%. An excerpt: Their optical luminescence properties, the luminescence lifetimes and the brightness properties are exceptional, with quantum yields of about 38% for Tb, 18% for Eu and lifetimes of the excited states of greater than 3 milliseconds for the Tb(I-3) and Tb(I-4) complexes.
By way of example, all of the absorption and emission properties of the terbium and europium complexes synthesized from the ligands (I-1) to (I-4) in accordance with the invention are summarized in Table 1 below:
The parameters φ and τ represent, respectively, the quantum luminescence yields and the luminescence lifetimes. They may be measured in water and in D2O.

Series [3] is described as follows: Stability of terbium complexes (luminescence lifetime) in buffers with ligands capable of decomplexing the lanthanide ions. Particulars: for stability: various aqueous media. Here is the method: By way of example, the stability of the terbium complexes synthesized from the ligands (I-1) to (I-4) in accordance with the invention is given in Table 2 below. Various buffers in the presence of ligands capable of decomplexing the lanthanide ions were tested. For comparative purposes, Table 2 also gives the stability of a terbium complex TbL4 of the prior art corresponding to the following formula: […]

Setting [4] is: Tris 50 mM - Serum 50%, pH = 7.0.
Where [5] appears, read: Tris 0.1M - EDTA 10 mM, pH = 7.0.
The mark [6] stands for this setting: Tris 0.1M - KF 400 mM, pH = 7.0.

These results are taken from patent US9388202B2, “Luminescent probes for biological labeling and imaging, method for preparing same” (CENTRE NATIONAL DE LA RECHERCHE SCIENTIFIQUE, priority 2011, dated 2016).

Where “and” joins values, the source holds several entries; their conditions need not be identical. Identical values can stand only once.

With `CCOP(=O)([O-])CN(CC(=O)[O-])Cc1cc(C#Cc2ccc(C(=O)NCCCC(=O)[O-])c3ccccc23)cc(CN(CC(=O)[O-])CP(=O)([O-])OCC)n1.[Eu+3].[Na+].[Na+]` [Eu(I-1)], the “Absorption λabs” value in series [1] was 266 nm and 349 nm. Further, in series [2] (D2O), the “Emission τ (luminescence lifetime)” value is listed as 2.4 ms and the “Emission φ (quantum luminescence yield)” value is 24%. Further, in series [2] (H2O), the “Emission τ (luminescence lifetime)” value is listed as 1.5 ms and the “Emission φ (quantum luminescence yield)” value is on record as 16%.
Regarding `CCOP(=O)([O-])CN(CC(=O)[O-])Cc1cc(C#Cc2ccc(C#CCCCCC(=O)[O-])c3ccccc23)cc(CN(CC(=O)[O-])CP(=O)([O-])OCC)n1.[Eu+3].[Na+].[Na+]` [Eu(I-2)], the “Absorption λabs” value in series [1] was 265 nm and 347 nm. The entries for the “Emission τ (luminescence lifetime)” value in series [2] (D2O) and in series [2] (H2O) were 2.4 ms and 1.6 ms, respectively. For the same compound, the “Emission φ (quantum luminescence yield)” value in series [2] (D2O) is reported as 26%; in series [2] (H2O), 17%.
With `CCOP(=O)([O-])CN(Cc1cc(C#Cc2ccc(C(=O)NCCCC(=O)[O-])c3ccccc23)cc(CN(CP(=O)([O-])OCC)CP(=O)([O-])OCC)n1)CP(=O)([O-])OCC.[Eu+3].[Na+].[Na+]` [Eu(I-3)], the “Absorption λabs” value in series [1] was 270 nm and 352 nm. The “Emission τ (luminescence lifetime)” value was 2.5 ms in series [2] (D2O) and 1.7 ms in series [2] (H2O). The “Emission φ (quantum luminescence yield)” value in series [2] (D2O) is recorded as 22%; in series [2] (H2O), 18%.
Take `CCOP(=O)([O-])CN(Cc1cc(C#Cc2ccc(C#CCCCCC(=O)[O-])c3ccccc23)cc(CN(CP(=O)([O-])OCC)CP(=O)([O-])OCC)n1)CP(=O)([O-])OCC.[Eu+3].[Na+].[Na+]` [Eu(I-4)]: the “Absorption λabs” value in series [1] was 268 nm and 350 nm. Further, in series [2] (D2O), the “Emission τ (luminescence lifetime)” value is recorded as 2.5 ms and the “Emission φ (quantum luminescence yield)” value is listed as 24%. Also, in series [2] (H2O), the “Emission τ (luminescence lifetime)” value is given as 1.6 ms and the “Emission φ (quantum luminescence yield)” value is reported as 17%.
For the compound `CCOP(=O)([O-])CN(CC(=O)[O-])Cc1cc(C#Cc2ccc(C(=O)NCCCC(=O)[O-])c3ccccc23)cc(CN(CC(=O)[O-])CP(=O)([O-])OCC)n1.[Na+].[Na+].[Tb+3]` [Tb(I-1)], in series [1], the “Absorption λabs” value is 268 nm and 348 nm. The “Emission τ (luminescence lifetime)” value in series [2] (D2O) was 3.1 ms; in series [2] (H2O), 2.8 ms. For the same compound, the entries for the “Emission φ (quantum luminescence yield)” value in series [2] (D2O) and in series [2] (H2O) were 46% and 35%, respectively. For the same compound, the τ in series [3] (H2O, estimated error ±5%) is 2.8 ms; in series [3] (Phosphate 0.1M, pH = 7.0), 2.7 ms; in series [3] (setting [4]), 2.6 ms; in series [3] (setting [5]), 2.6 ms; in series [3] (setting [6]), 2.6 ms; in series [3] (Tris 0.1M, pH = 7.0) it was 2.7 ms.
Take `CCOP(=O)([O-])CN(CC(=O)[O-])Cc1cc(C#Cc2ccc(C#CCCCCC(=O)[O-])c3ccccc23)cc(CN(CC(=O)[O-])CP(=O)([O-])OCC)n1.[Na+].[Na+].[Tb+3]` [Tb(I-2)]: in series [1], the “Absorption λabs” value is 270 nm and 349 nm. The “Emission τ (luminescence lifetime)” value in series [2] (D2O) is 3.2 ms; in series [2] (H2O) it was 2.6 ms. In addition, the “Emission φ (quantum luminescence yield)” value in series [2] (D2O) is 45%; in series [2] (H2O) it was 32%. The τ in series [3] (H2O, estimated error ±5%) is reported as 2.6 ms; in series [3] (Phosphate 0.1M, pH = 7.0), 2.5 ms; in series [3] (setting [4]), 2.4 ms; in series [3] (setting [5]), 2.4 ms; in series [3] (setting [6]), 2.5 ms; in series [3] (Tris 0.1M, pH = 7.0) it was 2.5 ms.
As for `CCOP(=O)([O-])CN(Cc1cc(C#Cc2ccc(C(=O)NCCCC(=O)[O-])c3ccccc23)cc(CN(CP(=O)([O-])OCC)CP(=O)([O-])OCC)n1)CP(=O)([O-])OCC.[Na+].[Na+].[Tb+3]` [Tb(I-3)], the “Absorption λabs” value in series [1] is 272 nm and 353 nm. Also, the “Emission τ (luminescence lifetime)” value in series [2] (D2O) is reported as 3.4 ms; in series [2] (H2O), 3.1 ms. The “Emission φ (quantum luminescence yield)” value was 42% in series [2] (D2O) and 38% in series [2] (H2O). Moreover, the τ in series [3] (H2O, estimated error ±5%) is 3.1 ms; in series [3] (Phosphate 0.1M, pH = 7.0), 2.9 ms; in series [3] (setting [4]), 3.0 ms; in series [3] (setting [5]), 3.0 ms; in series [3] (setting [6]), 2.9 ms; in series [3] (Tris 0.1M, pH = 7.0), 3.0 ms. In series [3], the stability result was “excellent stability”.
Consider `CCOP(=O)([O-])CN(Cc1cc(C#Cc2ccc(C#CCCCCC(=O)[O-])c3ccccc23)cc(CN(CP(=O)([O-])OCC)CP(=O)([O-])OCC)n1)CP(=O)([O-])OCC.[Na+].[Na+].[Tb+3]` [Tb(I-4)], for which the “Absorption λabs” value in series [1] was 272 nm and 352 nm. Also, the “Emission τ (luminescence lifetime)” value in series [2] (D2O) is reported as 3.5 ms; in series [2] (H2O), 3.2 ms. For the same compound, the “Emission φ (quantum luminescence yield)” value in series [2] (D2O) is 41%; in series [2] (H2O), 36%. Moreover, the τ is 3.2 ms in series [3] (H2O, estimated error ±5%); 3.0 ms in series [3] (Phosphate 0.1M, pH = 7.0); 3.0 ms in series [3] (setting [4]); 3.1 ms in series [3] (setting [5]); 3.0 ms in series [3] (setting [6]); 3.1 ms in series [3] (Tris 0.1M, pH = 7.0). For the same compound, the stability entry in series [3] is given as “excellent stability”.
